Experimental data as given in PubChem BioAssay AID192 (DTP/NCI, 2004).
Several values for one entry are separate records, joined by “and”; a condition that tells them apart may be missing. Equal values may be shown once. Toxic doses and inconclusive results are not listed. How the source made its calls: active means survival T/C of 150% or more; inactive means T/C below 125% in these data.

Test system: BDF1 mice, B16 melanoma ip, median survival T/C
Experiment: NCI In Vivo Anticancer Drug Screen. Data for tumor model B16 Melanoma (intraperitoneal) in B6D2F1 (BDF1) mice
Conditions: endpoint: median survival time, higher = longer survival
Method in brief: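 Compounds were tested in mice carrying transplantable tumors. Survival or tumor size was recorded, and each value is the treated-group measurement (T) divided by that of the vehicle-treated control group (C).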

[1] = dose: 25.0 mg/kg/injection, schedule: Q01DX009 (ip), vehicle: Klucel (hydroxypropylcellulose) (HPC)
[2] = dose: 50.0 mg/kg/injection, schedule: Q01DX009 (ip), vehicle: Klucel (hydroxypropylcellulose) (HPC)
[3] = dose: 100.0 mg/kg/injection, schedule: Q01DX009 (ip), vehicle: Klucel (hydroxypropylcellulose) (HPC)
[4] = dose: 6.25 mg/kg/injection, schedule: Q01DX009 (ip), vehicle: saline with Tween-80
[5] = dose: 12.5 mg/kg/injection, schedule: Q01DX009 (ip), vehicle: saline with Tween-80
[6] = dose: 25.0 mg/kg/injection, schedule: Q01DX009 (ip), vehicle: saline with Tween-80
[7] = dose: 12.5 mg/kg/injection, schedule: Q01DX009 (ip), vehicle: saline
[8] = dose: 25.0 mg/kg/injection, schedule: Q01DX009 (ip), vehicle: saline
[9] = dose: 50.0 mg/kg/injection, schedule: Q01DX009 (ip), vehicle: saline
[10] = dose: 100.0 mg/kg/injection, schedule: Q01DX009 (ip), vehicle: saline
[11] = dose: 200.0 mg/kg/injection, schedule: Q01DX009 (ip), vehicle: saline
[12] = dose: 400.0 mg/kg/injection, schedule: Q01DX009 (ip), vehicle: saline

Measured: T/C

CCCCCCCCCCCC[S+](C)C
inactive: dose: 2.0 mg/kg/injection, schedule: Q01DX009 (ip), vehicle: saline sonified 89 % of control | dose: 4.0 mg/kg/injection, schedule: Q01DX009 (ip), vehicle: saline sonified 102 % of control | dose: 5.0 mg/kg/injection, schedule: Q01DX009 (ip), vehicle: Klucel (hydroxypropylcellulose) (HPC) 97 % of control | dose: 8.0 mg/kg/injection, schedule: Q01DX009 (ip), vehicle: saline sonified 107 % of control | dose: 10.0 mg/kg/injection, schedule: Q01DX009 (ip), vehicle: Klucel (hydroxypropylcellulose) (HPC) 100 % of control | dose: 16.0 mg/kg/injection, schedule: Q01DX009 (ip), vehicle: saline sonified 100 % of control | dose: 20.0 mg/kg/injection, schedule: Q01DX009 (ip), vehicle: Klucel (hydroxypropylcellulose) (HPC) 88 % of control

Oc1ccc(/C=N\Nc2ccccn2)c(O)c1
inactive: dose: 12.5 mg/kg/injection, schedule: Q01DX009 (ip), vehicle: Klucel (hydroxypropylcellulose) (HPC) 90 % of control | [1] 102 % of control | [2] 98 % of control | [3] 115 % of control | dose: 200.0 mg/kg/injection, schedule: Q01DX009 (ip), vehicle: Klucel (hydroxypropylcellulose) (HPC) 124 % of control

CC(C)(C)C(=O)CC(=O)C(F)(F)C(F)(F)C(F)(F)F.[Ag]
inactive: [4] 97 % of control | [5] 94 % of control | [6] 86 % of control

C[n+]1c(-c2cccc(OCCCCCCCOc3cccc(-c4c5cc(N)ccc5c5ccc(N)cc5[n+]4C)c3)c2)c2cc(N)ccc2c2ccc(N)cc21
inactive: dose: 0.02 mg/kg/injection, schedule: Q01DX009 (ip), vehicle: water 95 % of control | dose: 0.04 mg/kg/injection, schedule: Q01DX009 (ip), vehicle: water 123 % of control

O=C1C(=O)c2ccccc2C(O)=C1CC=C(Cl)Cl
inactive: dose: 6.2 mg/kg/injection, schedule: Q01DX009 (ip), vehicle: water 93 % of control | [7] 100 % of control | dose: 12.5 mg/kg/injection, schedule: Q01DX009 (ip), vehicle: water 93 % of control | [8] 102 % of control | dose: 25.0 mg/kg/injection, schedule: Q01DX009 (ip), vehicle: water 100 % of control | dose: 25.0 mg/kg/injection, schedule: Q01DX009 (oral), vehicle: water 103 % of control and 106 % of control | [9] 100 % of control | dose: 50.0 mg/kg/injection, schedule: Q01DX009 (ip), vehicle: water 100 % of control | dose: 50.0 mg/kg/injection, schedule: Q01DX009 (oral), vehicle: saline 105 % of control | dose: 50.0 mg/kg/injection, schedule: Q01DX009 (oral), vehicle: water 106 % of control | dose: 75.0 mg/kg/injection, schedule: Q01DX009 (oral), vehicle: water 110 % of control | dose: 100.0 mg/kg/injection, schedule: Q01DX009 (oral), vehicle: saline 116 % of control | dose: 100.0 mg/kg/injection, schedule: Q01DX009 (oral), vehicle: water 106 % of control and 113 % of control | dose: 200.0 mg/kg/injection, schedule: Q01DX009 (oral), vehicle: water 106 % of control

O=C(O)CCc1cccnc1
inactive: [9] 104 % of control | [10] 107 % of control | [11] 106 % of control | [12] 107 % of control

CC(=N\[O-])/C(C)=N/O.CC(=N\[O-])/C(C)=N/O.CC(=O)[O-].CC(=O)[O-].O.[Rh+2].[Rh+2]
inactive: dose: 1.56 mg/kg/injection, schedule: Q01DX009 (ip), vehicle: saline 115 % of control | [8] 115 % of control

Cc1ccc2c(C)c3ccc4ccccc4c3c[n+]2c1
inactive: dose: 10.0 mg/kg/injection, schedule: Q01DX009 (ip), vehicle: saline with Tween-80 104 % of control | dose: 20.0 mg/kg/injection, schedule: Q01DX009 (ip), vehicle: saline with Tween-80 106 % of control | dose: 40.0 mg/kg/injection, schedule: Q01DX009 (ip), vehicle: saline with Tween-80 100 % of control

FC(F)(F)C(F)(Cl)C(Cl)(Cl)C(F)(F)F (stereo not drawn)
inactive: dose: 100.0 mg/kg/injection, schedule: Q04DX003 (ip), vehicle: saline 92 % of control | dose: 200.0 mg/kg/injection, schedule: Q04DX003 (ip), vehicle: saline 104 % of control | dose: 400.0 mg/kg/injection, schedule: Q04DX003 (ip), vehicle: saline 97 % of control

CCCCCCCCCCCCCCCC(=O)N(CCC#N)C(C)(C)CCC(C)(C)N(CCC#N)C(=O)CCCCCCCCCCCCCCC
inactive: [1] 90 % of control | [2] 98 % of control | [3] 91 % of control

CCC(CC)(CO)CO
inactive: [8] 92 % of control | [9] 102 % of control | [10] 104 % of control | [11] 107 % of control | [12] 97 % of control

CCN(CC)C(C)CN1c2ccccc2Sc2ccccc21 (stereo not drawn)
inactive: dose: 6.25 mg/kg/injection, schedule: Q01DX009 (ip), vehicle: saline 95 % of control | [7] 105 % of control | [8] 105 % of control | [9] 112 % of control | [10] 112 % of control

NC1CC[N-]CC1.NC1CC[N-]CC1.NC1CC[N-]CC1.NC1CC[N-]CC1.[Cl][Rh][Cl]
inactive: [4] 103 % of control | [5] 101 % of control | [6] 93 % of control

O=c1[nH]c2c(ccc3cnccc32)c2c1CCC2
inactive: dose: 3.12 mg/kg/injection, schedule: Q01DX009 (ip), vehicle: suspension in saline 97 % of control | dose: 6.25 mg/kg/injection, schedule: Q01DX009 (ip), vehicle: suspension in saline 104 % of control

CC1(C)c2ccccc2C(C)(O)c2ccccc21
inactive: dose: 50.0 mg/kg/injection, schedule: Q04DX003 (ip), vehicle: saline with Tween-80 102 % of control | dose: 100.0 mg/kg/injection, schedule: Q04DX003 (ip), vehicle: saline with Tween-80 111 % of control | dose: 200.0 mg/kg/injection, schedule: Q04DX003 (ip), vehicle: saline with Tween-80 94 % of control

C/C=C(\CC)C(=O)NC(N)=O
inactive: dose: 12.5 mg/kg/injection, schedule: Q04DX003 (ip), vehicle: Klucel (hydroxypropylcellulose) (HPC) 93 % of control | dose: 25.0 mg/kg/injection, schedule: Q04DX003 (ip), vehicle: Klucel (hydroxypropylcellulose) (HPC) 100 % of control | dose: 50.0 mg/kg/injection, schedule: Q04DX003 (ip), vehicle: Klucel (hydroxypropylcellulose) (HPC) 93 % of control | dose: 200.0 mg/kg/injection, schedule: Q04DX003 (ip), vehicle: Klucel (hydroxypropylcellulose) (HPC) 95 % of control
